Consider one compound from publication PMC12432892, “Therapeutic applications of interface-mimicking peptides for targeting the SARS-CoV-2 NSP12-NSP8 RdRp complex” (Molecular Therapy, 2025).

This test concerns the target T1, SARS-CoV-2 RdRp (Severe acute respiratory syndrome coronavirus 2, UniProt P0DTD1).
T1 construct: The SARS-CoV-2 reporter and NSP12, NSP7, and NSP8 genes were cloned into pcDNA3.1(+) plasmid vectors; expressed in transfected cells; host or cells: 293T (HEK-293T) cells, pcDNA3.1(+) plasmids
The format is cell-based.

In the case of `CCC(CC)COC(=O)[C@H](C)N[P@](=O)(OC[C@H]1O[C@@](C#N)(c2ccc3c(N)ncnn23)[C@H](O)[C@@H]1O)Oc1ccccc1` [remdesivir], the “effect on polymerase activity, in words” value is “dose-dependent reduction in polymerase activity”.
